ChEMBL document CHEMBL2150967, “Novel Quinolinones as Activators of AMP Activated Protein Kinase: Patent Highlight” (ACS Med Chem Lett, 2012)

Assays:
[1] = target: AMP-activated protein kinase, AMPK; assay: (§1) Activation of recombinant human AMPK by FRET assay
[2] = target: AMP-activated protein kinase, AMPK (Homo sapiens) (UniProt P54646+O43741+P54619+Q9UGJ0+Q9Y478+Q13131+Q9UGI9); assay: as §1

## Cc1cc(-c2c(O)c3cc(-c4ccc(N(C)C)cc4)c(Cl)cc3[nH]c2=O)no1
[1]
  pEC50: < 5.5
[2]
  pEC200: < 5

## Cc1nc(-c2c(O)c3cc(-c4ccc(N(C)C)cc4)c(Cl)cc3[nH]c2=O)c(C)s1
[1]
  pEC50: < 5.5
[2]
  pEC200: < 5

## COc1cccc(-c2ccc(-c3cc4c(O)c(-n5cccn5)c(=O)[nH]c4cc3Cl)cc2)c1
[1]
  pEC50: < 5.5
[2]
  pEC200: < 5

## Cc1ccn(-c2c(O)c3cc(-c4ccc(N5CCCC5)cc4)c(Cl)cc3[nH]c2=O)n1
[1]
  pEC50: < 5.5
[2]
  pEC200: < 5

## Cc1nc(-c2c(O)c3cc(-c4ccc(N5CCCCC5)cc4)c(Cl)cc3[nH]c2=O)cs1
[1]
  pEC50: < 5.5
[2]
  pEC200: < 5
